Source: US9975888B2, “Aryl linked imidazole and triazole derivatives and methods of use thereof for improving the pharmacokinetics of a drug” (MERCK SHARP & DOHME CORP., priority 2013, dated 2018)
Where two headings read alike, the source gives them in different places.

What was measured:
Format in all cases: biochemical
CYP2C19 = target: T1, CYP2C19 (Homo sapiens, UniProt P33261); assay: Cocktail assay for CYPs, mephenytoin 4′-hydroxylation (CYP2C19), human liver microsomes; conditions: 0.1 mg/mL human liver microsomes, 10 min at 37° C.
T1 construct: 0.1 mg/mL protein human liver microsomes (BD Gentest); tissue BD Gentest; host or cells: human liver microsomes
Procedure: (§1) Determination of IC50 in a Cocktail Assay for CYPs 1A2, 2C9, 2C19, 2D6 and 3A4:
(§2) This assay was performed in a standard 96-well plate design. […] The incubation substrate mix contains 10 μM phenacetin (1A2), 5 μM diclofenac (2C9), 30 μM mephenytoin (2C19), 5 μM dextromethorphan (2D6) and 2 μM midazolam (3A4), 0.1 mg/mL protein human liver microsomes (BD Gentest), 1 mM NAPDH, 3.3 mM MgCl2 and 100 mM potassium phosphate buffer (pH 7.4). The production of the metabolite of each probe substrate was determined after incubation for 10 min at 37° C. Quantitation of the metabolite peak area ratio against an internal standard (tolbutamide) was determined by LC/MS/MS analysis following acetonitrile treatment of the incubations.
(§3) Samples were analyzed in the MRM mode with a SCIEX API-4000 mass spectrometer (Applied Biosystems, Foster City, Calif.), with a Shimadzu LC-20 AD pump (Shimadzu corporation, Kyoto, JP) and a CTC PAL autosampler (Agilent Technologies, Switzerland). A Phenomenex, Luna, 5 nm, 100 A, 2.00×30 mm HPLC column was used for the separation. The mobile phases were: (A) 0.1% formic acid in water and (B) 0.1% formic acid in acetonitrile. The binary gradient was as follows.
(§4) The peak area ratio of the analyte to the internal standard was used to quantify the metabolite. The values of peak area ratios in the presence of test compound were compared to those of maximum or minimum controls and were expressed as % inhibition by interpolating between the maximum and minimum peak area ratios. Incubations with no inhibitor were defined as the maxima. The following equation was used to calculate the % inhibition: [1−[(X−Low control)/(High control−Low control)]]*100 For the IC50 calculation, SigmaPlot was used to plot the mean % inhibition versus the test compound concentrations and for non-linear regression analysis of the data. Depending on the range of data points defining the inhibition curve, the data may have been fit to the 4-parameter logistic equation.

CYP2D6 = target: T2, CYP2D6 (Homo sapiens, UniProt P10635); assay: Cocktail assay for CYPs, dextromethorphan O-demethylation (CYP2D6), human liver microsomes; conditions: 5 μM dextromethorphan, 0.1 mg/mL human liver microsomes, 10 min at 37° C.; read-out: CYP IC50 (nM) 2D6
T2 construct: 0.1 mg/mL protein human liver microsomes (BD Gentest); tissue BD Gentest; host or cells: human liver microsomes
Procedure: as §1
(§5) This assay was performed in a standard 96-well plate design. IC50 values were calculated from the percent inhibition observed for each test compound at 6 concentrations (for example, 0.0032, 0.016, 0.08, 0.4, 2 and 10 μM). The incubation substrate mix contains 10 μM phenacetin (1A2), 5 μM diclofenac (2C9), 30 μM mephenytoin (2C19), 5 μM dextromethorphan (2D6) and 2 μM midazolam (3A4), 0.1 mg/mL protein human liver microsomes (BD Gentest), 1 mM NAPDH, 3.3 mM MgCl2 and 100 mM potassium phosphate buffer (pH 7.4). The production of the metabolite of each probe substrate was determined after incubation for 10 min at 37° C. Quantitation of the metabolite peak area ratio against an internal standard (tolbutamide) was determined by LC/MS/MS analysis following acetonitrile treatment of the incubations.
as §3, §4

CYP2C9 = target: T3, CYP2C9 (Homo sapiens, UniProt P11712); assay: Cocktail assay for CYPs, diclofenac 4′-hydroxylation (CYP2C9), human liver microsomes; conditions: 0.1 mg/mL human liver microsomes, 10 min at 37° C.
T3 construct: 0.1 mg/mL protein human liver microsomes (BD Gentest); tissue BD Gentest; host or cells: human liver microsomes
Procedure: as §1, §2, §3, §4

CYP1A2 = target: T4, CYP1A2 (Homo sapiens, UniProt P05177); assay: Cocktail assay for CYPs, phenacetin O-deethylation (CYP1A2), human liver microsomes; conditions: 10 μM phenacetin, 0.1 mg/mL human liver microsomes, 10 min at 37° C.; read-out: CYP IC50 (nM) 1A2
T4 construct: 0.1 mg/mL protein human liver microsomes (BD Gentest); tissue BD Gentest; host or cells: human liver microsomes
T4 sequence (P05177 1-516): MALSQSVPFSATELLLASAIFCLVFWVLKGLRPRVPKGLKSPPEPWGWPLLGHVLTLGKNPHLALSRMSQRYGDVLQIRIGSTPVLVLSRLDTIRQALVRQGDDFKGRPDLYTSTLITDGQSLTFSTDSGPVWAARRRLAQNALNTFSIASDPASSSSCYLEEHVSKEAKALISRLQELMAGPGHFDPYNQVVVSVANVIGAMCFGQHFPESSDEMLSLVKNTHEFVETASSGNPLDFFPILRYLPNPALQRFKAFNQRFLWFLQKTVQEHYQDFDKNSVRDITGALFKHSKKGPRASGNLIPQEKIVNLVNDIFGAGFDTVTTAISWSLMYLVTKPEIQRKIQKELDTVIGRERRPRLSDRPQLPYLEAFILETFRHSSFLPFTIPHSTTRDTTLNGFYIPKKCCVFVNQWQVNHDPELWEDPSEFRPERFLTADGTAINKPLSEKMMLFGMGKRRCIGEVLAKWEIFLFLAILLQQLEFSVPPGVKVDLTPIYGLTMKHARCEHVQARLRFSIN
Procedure: as §1, §5, §3, §4

CYP3A4 [1] = target: T5, CYP3A4 (Homo sapiens, UniProt P08684); assay: IC50 vs CYP3A by inhibition of lopinavir metabolism in human liver microsomes; set-up: 0.01 mg/mL protein human liver microsomes (BD Gentest); tissue BD Gentest; host or cells: human liver microsomes; conditions: 1.5 μM lopinavir, 0.01 mg/mL human liver microsomes, 8 min at 37° C.; read-out: CYP IC50 (nM) 3A4 (LPV)
Procedure: Determination of IC50 vs CYP3A by Measurement of Inhibition of Lopinavir Metabolism
This assay was performed in a standard 96-well plate design. IC50 values were calculated from the percent inhibition observed for each test compound at 6 concentrations (for example, 0.098, 0.391, 1.56, 6.25, 25 and 100 nM). The incubation substrate mix contains 1.5 μM lopinavir, 0.01 mg/mL protein human liver microsomes (BD Gentest), 1 mM NAPDH, 3.3 mM MgCl2 and 100 mM potassium phosphate buffer (pH 7.4). The production of the sum of three hydroxylated metabolites (M2: 6-hydroxy lopinavir, M3: 4-hydroxy lopinavir, M4: 4-hydroxy lopinavir (epimer of M3), Kumar et al., 1999) was determined after incubation for 8 min at 37° C. Quantitation of the metabolite peak area ratio against an internal standard (tolbutamide) was determined by LC/MS/MS analysis following acetonitrile treatment of the incubations.
as §3, with “μm,” for “nm,”
Target sequence in this assay (P08684 2-503): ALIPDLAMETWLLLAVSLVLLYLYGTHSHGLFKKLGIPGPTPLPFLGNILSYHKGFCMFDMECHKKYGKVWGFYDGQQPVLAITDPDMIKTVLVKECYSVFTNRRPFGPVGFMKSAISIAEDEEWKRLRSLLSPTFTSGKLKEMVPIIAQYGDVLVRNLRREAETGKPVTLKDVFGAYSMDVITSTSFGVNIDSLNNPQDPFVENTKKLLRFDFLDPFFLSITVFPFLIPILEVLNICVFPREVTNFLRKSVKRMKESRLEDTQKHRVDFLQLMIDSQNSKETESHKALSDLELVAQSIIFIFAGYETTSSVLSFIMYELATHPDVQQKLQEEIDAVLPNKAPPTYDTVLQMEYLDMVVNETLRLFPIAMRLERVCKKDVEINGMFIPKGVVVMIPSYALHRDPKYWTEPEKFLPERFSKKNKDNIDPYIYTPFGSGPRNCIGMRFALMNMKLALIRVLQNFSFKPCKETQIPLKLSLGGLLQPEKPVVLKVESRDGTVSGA
The peak area ratio of the analyte to the internal standard was used to quantify the metabolite. The values of peak area ratios in the presence of test compound were compared to those of maximum or minimum controls and were expressed as % inhibition by interpolating between the maximum and minimum peak area ratios. Incubations with no inhibitor were defined as the maxima and with 5 μM ketoconazole were defined as the minima.
The following equation was used to calculate the % inhibition: [1−[(X−Low control)/(High control−Low control)]]*100
For the IC50 calculation, SigmaPlot was used to plot the mean % inhibition versus the test compound concentrations and for non-linear regression analysis of the data. Depending on the range of data points defining the inhibition curve, the data may have been fit to the 4-parameter logistic equation.

CYP3A4 [2] = target: T5, CYP3A4; assay: Cocktail assay for CYPs, midazolam 1′-hydroxylation (CYP3A4), human liver microsomes; set-up: 0.1 mg/mL protein human liver microsomes (BD Gentest); tissue BD Gentest; host or cells: human liver microsomes; conditions: 2 μM midazolam, 0.1 mg/mL human liver microsomes, 10 min at 37° C.; read-out: CYP IC50 (nM) 3A4 (MDZ)
Procedure: as §1, §5, §3, §4
Target sequence in this assay (P08684 whole entry): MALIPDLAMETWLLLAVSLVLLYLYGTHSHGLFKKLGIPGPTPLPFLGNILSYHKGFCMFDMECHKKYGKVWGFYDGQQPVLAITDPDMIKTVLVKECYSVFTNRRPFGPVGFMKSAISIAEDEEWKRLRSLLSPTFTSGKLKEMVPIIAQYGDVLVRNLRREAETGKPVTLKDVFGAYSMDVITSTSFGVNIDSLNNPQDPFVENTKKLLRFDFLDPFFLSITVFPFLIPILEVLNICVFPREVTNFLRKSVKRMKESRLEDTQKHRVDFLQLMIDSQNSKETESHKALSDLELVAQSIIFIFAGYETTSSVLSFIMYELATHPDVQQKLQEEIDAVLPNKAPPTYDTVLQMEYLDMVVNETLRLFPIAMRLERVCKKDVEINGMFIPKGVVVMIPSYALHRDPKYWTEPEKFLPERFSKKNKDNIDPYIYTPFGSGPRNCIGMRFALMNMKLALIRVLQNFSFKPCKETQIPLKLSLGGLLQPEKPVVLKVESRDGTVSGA

[3] = 30 μM mephenytoin, read-out: CYP IC50 (nM) 2C19
[4] = 5 μM diclofenac, read-out: CYP IC50 (nM) 2C9

T3 sequence (P11712 whole entry): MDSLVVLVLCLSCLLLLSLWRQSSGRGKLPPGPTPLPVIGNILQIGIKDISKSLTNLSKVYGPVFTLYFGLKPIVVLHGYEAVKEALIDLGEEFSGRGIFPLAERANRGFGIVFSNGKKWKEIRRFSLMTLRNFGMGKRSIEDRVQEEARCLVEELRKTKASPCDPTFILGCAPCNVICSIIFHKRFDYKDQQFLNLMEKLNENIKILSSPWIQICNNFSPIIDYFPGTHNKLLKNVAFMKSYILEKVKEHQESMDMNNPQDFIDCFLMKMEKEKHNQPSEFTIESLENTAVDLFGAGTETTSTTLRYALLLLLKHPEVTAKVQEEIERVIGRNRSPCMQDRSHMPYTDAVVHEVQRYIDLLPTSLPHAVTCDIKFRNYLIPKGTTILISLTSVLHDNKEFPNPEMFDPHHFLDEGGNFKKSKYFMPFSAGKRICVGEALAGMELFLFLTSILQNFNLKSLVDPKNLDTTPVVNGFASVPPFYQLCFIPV
T2 sequence (P10635 whole entry): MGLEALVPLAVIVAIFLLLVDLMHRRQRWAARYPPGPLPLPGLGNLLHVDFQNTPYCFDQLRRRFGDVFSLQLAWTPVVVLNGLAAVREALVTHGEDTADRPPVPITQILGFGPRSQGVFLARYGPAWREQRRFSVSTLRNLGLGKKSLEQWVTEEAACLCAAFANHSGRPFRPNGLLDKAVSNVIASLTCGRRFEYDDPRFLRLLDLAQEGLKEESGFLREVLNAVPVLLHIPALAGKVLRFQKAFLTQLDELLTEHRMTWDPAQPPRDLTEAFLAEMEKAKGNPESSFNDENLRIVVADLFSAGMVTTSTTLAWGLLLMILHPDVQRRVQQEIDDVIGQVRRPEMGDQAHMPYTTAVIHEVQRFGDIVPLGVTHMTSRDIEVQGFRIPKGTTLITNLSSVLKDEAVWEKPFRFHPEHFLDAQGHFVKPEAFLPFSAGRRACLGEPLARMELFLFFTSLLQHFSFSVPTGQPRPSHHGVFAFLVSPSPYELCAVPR
T1 sequence (P33261 whole entry): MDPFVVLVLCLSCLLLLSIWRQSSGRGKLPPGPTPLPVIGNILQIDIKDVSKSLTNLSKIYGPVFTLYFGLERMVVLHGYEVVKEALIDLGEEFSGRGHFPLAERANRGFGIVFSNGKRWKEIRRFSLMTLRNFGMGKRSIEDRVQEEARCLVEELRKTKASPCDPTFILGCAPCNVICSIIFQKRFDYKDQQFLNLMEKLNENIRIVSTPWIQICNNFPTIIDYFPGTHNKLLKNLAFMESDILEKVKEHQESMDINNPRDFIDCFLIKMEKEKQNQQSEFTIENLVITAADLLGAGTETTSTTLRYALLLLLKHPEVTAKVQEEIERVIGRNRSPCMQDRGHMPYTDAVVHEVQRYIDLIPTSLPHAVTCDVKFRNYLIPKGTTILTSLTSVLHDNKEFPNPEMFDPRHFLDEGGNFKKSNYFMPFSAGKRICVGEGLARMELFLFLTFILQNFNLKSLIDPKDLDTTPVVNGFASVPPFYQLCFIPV

IC50 (CYP2C19; [3]) [nM] | IC50 (CYP2D6) [nM] | IC50 (CYP2C9; [4]) [nM] | IC50 (CYP1A2) [nM] | IC50 (CYP3A4 [1]) [nM] | IC50 (CYP3A4 [2]) [nM] | SMILES | IC50 (CYP2C19; CYP IC50 (nM) 2C19, 30 μM mephenytoin) [nM] | IC50 (CYP2C9; CYP IC50 (nM) 2C9, 5 μM diclofenac) [nM]
7130 | > 10000 | 5900 | > 10000 | 6.4 | 6.7 | O=C(C1CC1)N1CCCC1c1ccccc1-c1cncn1CCc1ccc(F)cc1 (single isomer, unassigned) [Compound 44b, (R or S)-cyclopropyl(2-(2-(1-(4-fluorophenethyl)-1H-imidazol-5-yl)phenyl)pyrrolidin-1-yl)methanone] | – | –
> 10000 | > 10000 | > 10000 | > 10000 | 25.4 | 25.4 | CC(=O)Nc1ncc(S(=O)(=O)N2CCCC2c2ccccc2-c2cncn2C2CC2)s1 (stereo not drawn) [Compound 31, N-(5-((2-(2-(1-cyclopropyl-1H-imidazol-5-yl)phenyl)pyrrolidin-1-yl)sulfonyl)thiazol-2-yl) acetamide] | – | –
> 10000 | > 10000 | > 10000 | > 10000 | 11.1 | 10.7 | O=C(C1CCOCC1)N1CCCC1c1ccccc1-c1cncn1CCc1ccc(F)cc1 (stereo not drawn) [Compound 41, (2-(2-(1-(4-fluorophenethyl)-1H-imidazol-5-yl)phenyl)pyrrolidin-1-yl)(tetrahydro-2H-pyran-4-yl)methanone] | – | –
2930 | 7180 | > 10000 | > 10000 | 18.6 | 15.8 | CC(=O)Nc1ncc(S(=O)(=O)NCc2ccccc2-c2cncn2CCc2ccc(F)cc2)s1 [Compound 18, N-(5-(N-(2-(1-(4-fluorophenethyl)-1H-imidazol-5-yl)benzyl)sulfamoyl)thiazol-2-yl) acetamide] | – | –
> 10000 | > 10000 | > 10000 | 2680 | 23.8 | 22.4 | CN1CCN(c2ncc(S(=O)(=O)N3CCc4c(-c5cncn5CCc5ccc(F)cc5)ccnc4C3)s2)CC1 [Compound 66, 5-((4-(1-(4-fluorophenethyl)-1H-imidazol-5-yl)-5,6-dihydro-1,7-naphthyridin-7(8H)-yl)sulfonyl)-2-(4-methylpiperazin-1-yl)thiazole] | – | –
> 10000 | > 10000 | > 10000 | > 10000 | 45.3 | 58.5 | CC(C)NC(=O)N1CCCC1c1ccccc1-c1cncn1CCc1ccc(F)cc1 (single isomer, unassigned) [Compound 46a, (R or S)-2-(2-(1-(4-fluorophenethyl)-1H-imidazol-5-yl)phenyl)-N-isopropyl-pyrrolidine-1-carboxamide] | – | –
> 10000 | > 10000 | > 10000 | > 10000 | 29.5 | 32.5 | Cn1cncc1-c1ccccc1C1CCCN1S(=O)(=O)c1cnc(N2CCN3C[C@H](O)C[C@H]3C2)s1 (stereo partly drawn) [Compound 24, (7R,8aS)-2-(5-((2-(2-(1-methyl-1H-imidazol-5-yl)phenyl)pyrrolidin-1-yl)sulfonyl)thiazol-2-yl)octahydro-pyrrolo[1,2-a] pyrazin-7-ol] | – | –
1890 | 2140 | 2220 | 9490 | 23 | 50.3 | O=S(=O)(c1cnc(Cl)c(Br)c1)N1CCCC1c1ccccc1-c1cncn1CCc1ccc(F)cc1 (stereo not drawn) [Compound 25, 3-bromo-2-chloro-5-((2-(2-(1-(4-fluoro-phenethyl)-1H-imidazol-5-yl)phenyl)pyrrolidin-1-yl)sulfonyl) pyridine] | – | –
5610 | 1980 | 4530 | > 10000 | 1.5 | 4 | CN1CCN(c2ccc(S(=O)(=O)N3CCc4c(cccc4-c4cncn4CCc4ccc(F)cc4)C3)cn2)CC1 [Compound 59, 5-(1-(4-fluorophenethyl)-1H-imidazol-5-yl)-2-((6-(4-methylpiperazin-1-yl)pyridin-3-yl)sulfonyl)-1,2,3,4-tetrahydroisoquinoline] | – | –

SMILES | IC50 (CYP2C19; [3]) [nM] | IC50 (CYP2D6) [nM] | IC50 (CYP2C9; [4]) [nM] | IC50 (CYP1A2) [nM] | IC50 (CYP3A4 [1]) [nM] | IC50 (CYP3A4 [2]) [nM] | IC50 (CYP2C19; CYP IC50 (nM) 2C19, 30 μM mephenytoin) [nM] | IC50 (CYP2C9; CYP IC50 (nM) 2C9, 5 μM diclofenac) [nM]
C[C@@H](NS(=O)(=O)c1cnc(N2CCN3C[C@H](O)C[C@H]3C2)s1)c1ccccc1-c1cncn1CCc1ccc(F)cc1 [Compound 6a, N-((R)-1-(2-(1-(4-fluorophenethyl)-1H-imidazol-5-yl)phenyl)ethyl)-2-((7R,8aS)-7-hydroxy-hexahydro-pyrrolo[1,2-a]pyrazin-2(1H)-yl)thiazole-5-sulfonamide] | – | 2540 | – | > 10000 | 8.6 | 7.5 | 8700 | 4550
